How the values were obtained:
[1] = refractive index (Na D-line) (dimensionless); conditions: 101.33 kPa, Liquid, Standard Abbe refractometry
[2] = 101.33 kPa, Liquid
[3] = excess molar enthalpy (molar enthalpy of mixing); xn = mol fraction of the nth substance listed; conditions: 101 kPa, Liquid, Calvet calorimetry

CC1=CCC2CC1C2(C)C (centres undefined) [2-pinene]
Conditions	mass density, 298.15 K [kg/m3]	mass density, 308.15 K [kg/m3]	mass density, 318.15 K [kg/m3]	refractive index, 298.15 K	refractive index, 308.15 K	refractive index, 318.15 K
[1]	–	–	–	1.4626	1.4581	1.4542
[2]	854.03	845.79	838.64	–	–	–

C=C1CCC2CC1C2(C)C (stereo not drawn) [β-pinene]
Conditions	mass density, 298.15 K [kg/m3]	mass density, 308.15 K [kg/m3]	mass density, 318.15 K [kg/m3]	refractive index, 298.15 K	refractive index, 308.15 K	refractive index, 318.15 K
[1]	–	–	–	1.476	1.4714	1.4665
[2]	867.06	859.08	852.08	–	–	–

CC1=CCC2CC1C2(C)C (centres undefined) [2-pinene] + C=C1CCC2CC1C2(C)C
[3]
Conditions	excess molar enthalpy [kcal/mol]
298.15 K, x1 = 0.2012	0.00167
298.15 K, x1 = 0.3013	0.0022
298.15 K, x1 = 0.3987	0.00253
298.15 K, x1 = 0.4993	0.00265
298.15 K, x1 = 0.5994	0.00246
298.15 K, x1 = 0.7023	0.00227
298.15 K, x1 = 0.7998	0.00174
308.15 K, x1 = 0.2	0.00179
308.15 K, x1 = 0.3004	0.00241
308.15 K, x1 = 0.3999	0.00272
308.15 K, x1 = 0.5006	0.00284
308.15 K, x1 = 0.6013	0.00261
308.15 K, x1 = 0.6972	0.00237
308.15 K, x1 = 0.7998	0.00177
318.15 K, x1 = 0.2003	0.0021
318.15 K, x1 = 0.3001	0.00268
318.15 K, x1 = 0.4034	0.00304
318.15 K, x1 = 0.5	0.00315
318.15 K, x1 = 0.6004	0.00301
318.15 K, x1 = 0.7012	0.00272
318.15 K, x1 = 0.7975	0.00201

Cc1ccc(C(C)C)cc1 [1-(1-methylethyl)-4-methylbenzene]
Conditions	mass density, 298.15 K [kg/m3]	mass density, 308.15 K [kg/m3]	mass density, 318.15 K [kg/m3]	refractive index, 298.15 K	refractive index, 308.15 K	refractive index, 318.15 K
[1]	–	–	–	1.4878	1.4831	1.4789
[2]	853.47	845.59	838.46	–	–	–

From the NIST ThermoML archive (doi:10.1021/je060420p)
